Measurements as given in patent US20110065628A1, “Medication Combinations for the Treatment of Alcoholism and Drug Addiction” (UNIVERSITY OF VIRGINIA PATENT FOUNDATION, priority 2007, published 2011).
Structures can show the parent of a compound that is named as a salt.

Assays:
[1] = system: individuals who take topiramate; conditions: cited from earlier work
[2] = system: alcohol-dependent men and women; conditions: topiramate up to 300 mg per day, 12 weeks; cited from earlier work
[3] = system: alcohol-preferring (P) rats; test: Combined topiramate and naltrexone on alcohol consumption; type: in vivo
Experimental: FIG. 8 graphically illustrates the combined effect of topiramate and naltrexone on alcohol consumption in alcohol-preferring (P) rats. Rats received either vehicle, topiramate at 5 mg/kg, topiramate at 10 mg/kg, naltrexone at 1/mg/kg and topiramate at 5 mg/kg, naltrexone at 1/mg/kg and topiramate at 10 mg/kg, or naltrexone at 1 mg/kg. Each data point represents the mean (±SE) of 8 rats as a change from baseline.
No significant differences were observed following vehicle injection. Data are plotted as change from baseline consumption, and each data point represents a mean (±SE) of 8 rats.

[4] = system: alcohol-preferring (P) rats; test: 24-hour-access two-bottle choice alcohol consumption, topiramate, ondansetron, naltrexone; type: in vivo
Experimental: FIG. 10, comprising 5 panels—FIGS. 10A to 10E, graphically illustrates the combined effect of topiramate (10 mg/kg, IP), ondansetron (0.001 mg/kg, IP), and naltrexone (1 mg/kg, IP) on alcohol consumption in alcohol-preferring (P) rats. 10A—Topiramate alone; 10B—Ondansetron alone; 10C—Vehicle; 10D—Topiramate+Ondansetron; 10E—Topiramate+Ondansetron+Naltrexone. Data are plotted across seven consecutive sessions, which include a 3-day baseline period, the test session in which the ondansetron, topiramate, and naltrexone injection was administered, and the three sessions that followed the test session. Each data point represents a mean (±SE) of at least six rats. The ordinate represents ethanol intake in g/kg and the abscissa represents session number.
The effects of ondansetron, topiramate, and naltrexone, medications shown to be efficacious in treating alcohol-dependent humans, on measures of alcohol dependence were determined in animal models in order to determine whether these medications may produce additive effects when combined. The experiments examined their ability to modulate total consumption under a 24-hour-access two-bottle choice procedure wherein rats had unlimited access to alcohol solutions (10%) and water. […]

[5] = system: EOA and LOA alcoholics; conditions: EOA compared with LOA; 1, 4, 16 μg/kg twice daily, particularly 4 μg/kg; cited from earlier work
[6] = system: alcoholics (EOA and LOA); test: 11-week double-blind ondansetron trial with weekly Cognitive Behavioral Therapy; type: in vivo, human; conditions: for Drinks/Day / Drinks/Drinking Day: at endpoint; for Drinks/Day: placebo 3.30; for Drinks/Drinking Day: placebo 6.90
Excerpt: It was hypothesized herein that the drinking outcomes of EOA, compared with LOA, would be more improved by the selective serotonin antagonist, ondansetron. EOA differ from LOA by having greater serotonergic abnormality, an earlier age of onset, and antisocial behaviors. Thus, EOA may be especially responsive to treatment with a selective serotonergic agent.
The design was as follows: 321 alcoholics (EOA=161; LOA=160; mean age 40.6 years; 70.5% male, and 78.6% white) received one lead in week of single-blind placebo followed by 11 weeks of double-blind outpatient treatment using a 2×4 factorial design which examined age of onset (EOA vs. LOA) and medication dose (placebo, or ondansetron 1, 4, or 16 μg/kg b.i.d) combined with weekly standardized group Cognitive Behavioral Therapy. Efficacy measures were: 1) Self reported drinking (Drinks/Day, Drinks/Drinking Day, Percent Days Abstinent, and Total Days Abstinent/study week), and 2) plasma Carbohydrate Deficient Transferrin level (CDT).

[7] = system: patients with alcoholism (DSM III-R); test: 12-week outpatient placebo-controlled ritanserin trial with Cognitive Behavioral Therapy; type: in vivo, human; conditions: ritanserin 2.5 mg or 5 mg, 12 weeks
Experimental: FIG. 5 graphically illustrates the effects of treatment with Ritanserin in conjunction with Cognitive Behavioral Therapy. The ordinate represents the mean number of drinks since the last visit and the abscissa indicates the time period of assessment in the study (in weeks). Subjects were treated with 2.5 mg Ritanserin ([…]), 5.0 mg Ritanserin ? or received placebo (▴).
In this study, we examined the efficacy of ritanserin on alcohol consumption in a 12-week, outpatient, placebo-controlled clinical trial. This study overlapped in time and recruitment effort with the ondansetron study described above. Therefore, our research group has the expertise to conduct multiple treatment studies simultaneously. Fifty-four patients from our center who met DSM III-R criteria for alcoholism participated and were randomized to receive placebo, 2.5 mg, or 5 mg of ritanserin. All patients received standardized manual driven Cognitive Behavioral Therapy for alcoholism. Cognitive Behavioral Therapy was conducted by counselors with extensive experience with behavioral treatments, and over 500 therapy hours were logged. […] There was no within time effect nor group interaction. Similarly, there was no difference in craving between the treatment groups.

[8] = system: individuals in alcohol trials; conditions: cited from earlier work
[9] = system: patients with alcohol and nicotine dependence; test: Open-label 8 week naltrexone study with coping skills therapy; type: in vivo, human; conditions: naltrexone 50 mg/day, 8 weeks
Excerpt: In an open-label study, we evaluated the efficacy of naltrexone, an opioid antagonist, in the treatment of alcohol dependence. Since up to 92% of alcoholics are also co-dependent on nicotine, our cohort included dually dependent individuals. […] From a local newspaper advertisement, we enrolled 10 subjects (6 males and 4 females; aged 40±2.56 years) into the study. All patients met DSM III-R criteria for both alcohol and nicotine dependence. Patients were instructed that the goal of treatment was abstinence by the end of the study. Patients received naltrexone (50 mg/day) in unmarked capsules with a riboflavin tracer for an 8 week period. Weekly attendance included combined coping skills therapy for alcohol and nicotine dependence, nursing visits, and completion of rating scales. […] Drop-out rate at 30% was similar to that observed in medication trials for alcoholism. This study supports the clinical evidence that naltrexone is a useful adjunct to Cognitive Behavioral Therapy for the treatment of alcoholism. Naltrexone's effects on cigarette smoking appears small but may warrant further exploration.

[10] = system: alcohol consumption (8% w/v) in rhesus monkeys; test: Naltrexone effect on alcohol drinking, fixed ratio schedule, 3 hour sessions; type: in vivo; conditions: increasing doses of naltrexone 0.1, 0.3, 1.0, 3.0 g/kg; three non food deprived rhesus monkeys
Experimental: FIG. 3 graphically illustrates the effects of Naltrexone on alcohol consumption in non-human primates (rhesus monkeys). Naltrexone was administered at 0.1 (∘), 0.3 ([…]), 1.0 (□) or 3.0 (▪) […]. The ordinate represents cumulative deliveries as percent change from baseline. The abscissa represents time in 10 minute blocks.
During these 3 hour sessions, both water and alcohol were concurrently available.

[11] = EOA, ondansetron 1 μg/kg b.i.d, p<0.05
[12] = EOA, ondansetron 4 μg/kg b.i.d, p<0.05
[13] = N=321, 88 received the 4 μg/kg dose

For `CC1(C)O[C@@H]2[C@@H](CO[C@@]3(COS(N)(=O)=O)OC(C)(C)O[C@@H]23)O1` [topiramate, 2,3:4,5-Bis-O-(1-methylethylidene)-beta-D-fructopyranose sulfamate], the “cognitive impairment, reported rate” value ([1]; general population) is given as 2.4%, the “cognitive impairment, occurrence rate” value ([1]; substance abuse field) is given as “about 18.7%” and the craving vs. placebo [2] is given as “significantly less craving”. For the same compound, the “days of abstinence vs. placebo” value [2] was “significantly more days of abstinence”, the “drinks per day, drinking days, drinks per drinking day vs. placebo” value [2] was “significantly fewer drinks per day, drinking days, and drinks per drinking day” and the “alcohol consumption, change from baseline” value ([3]; topiramate alone, 10 mg/kg intraperitoneally, effect not yet significant) was “only modestly decreased alcohol consumption”. For the same compound, the “decrease in alcohol consumption from baseline” value ([4]; topiramate alone 10 mg/kg intraperitoneally (FIG. 10A)) was 12%±8%.

For `Cc1nccn1CC1CCc2c(c3ccccc3n2C)C1=O` (stereo not shown) [ondansetron, 9-methyl-3-[(2-methyl-1H-imidazol-1-yl)methyl]-1,2,3,9-tetrahydrocarbazol-4-one], the drinking [5] is given as “significant reductions in drinking”, the Drinks/Day [6, 11] is given as 1.89 and the “Drinks/Drinking Day” value [6, 11] is given as 4.75. The “mean log CDT ratio between endpoint and enrollment” value ([6]; EOA, ondansetron 1 μg/kg b.i.d, placebo +0.11, p<0.05) was −0.17, the Drinks/Day [6, 12] was 1.56 and the “Drinks/Drinking Day” value [6, 12] was 4.28. For the same compound, the “Drinking outcomes in LOA” value ([6]; LOA) was “not improved substantially”, the nausea [6, 13] was “nausea was not reported” and the side-effects vs. placebo [6, 13] was “no side-effect was reported more often than placebo”. The “Total Days Abstinent/study week” value ([6]; ondansetron 4 μg/kg b.i.d, placebo 5.92, p<0.05) was 6.74, the “Percent Days Abstinent” value ([6]; ondansetron 4 μg/kg b.i.d, placebo 50.20, p<0.05) was 70.10 and the alcohol consumption ([4]; ondansetron alone 0.001 mg/kg intraperitoneally (FIG. 10B)) was “did not affect alcohol consumption on its own”.

With `Cc1nc2sccn2c(=O)c1CCN1CCC(=C(c2ccc(F)cc2)c2ccc(F)cc2)CC1` [ritanserin] the alcohol consumption [7] was “no clinically significant effect” and the craving [7] was “no clinically significant effect”.

For `O=C1CC[C@@]2(O)[C@H]3Cc4ccc(O)c5c4[C@@]2(CCN3CC2CC2)[C@H]1O5` [naltrexone, 17-(Cyclopropylmethyl)-4,5 a-epoxy-3,14-dihydroxymorphinan-6-one hydrochloride], the “rate of subject withdrawal due to naltrexone induced nausea” value ([8]; Croop and Colleagues, 570 received naltrexone) is given as 15%, the “individuals unable to tolerate naltrexone” value ([8]; naltrexone dose of 50 mg/day) is given as “about 15%” and the nicotine withdrawal symptoms [9] is given as “No patient reported clinically significant nicotine withdrawal symptoms”. The alcohol consumption ([9]; before 3.29±2.16 drinks/day, p<0.05) was 2.16±1.88 drinks/day, the smoking ([9]; before 21.10±5.57 cigarettes/day) was 15.93±3.09 cigarette/day and the alcohol consumption [10] was “dose-dependent decreases”. The “alcohol consumption, change from baseline” value ([3]; naltrexone alone, 1 mg/kg intraperitoneally) was “did not affect alcohol consumption on its own”.
